Biological target: truncated PI3Kα (p110α/iSH2 p85α) (Homo sapiens (Human), UniProt P42336)
Test: PI3KA_Act fluorescence polarization kinase assay (Ki)
Format: biochemical
Details: 1 mM ATP
Procedure, shortened: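 Ki values result from fitting fluorescence polarization signals to the Morrison equation for tight-binding competitive inhibitors. The detector was GST-Grp1 PH domain with TAMRA-PIP3, read after a 30 min room-temperature reaction of 0.5 nM truncated PI3Kα and 30 μM PIP2 at pH 7.4 in HEPES/NaCl/MgCl2/DTT/CHAPS buffer. Compounds were tested as 12-point 3-fold dilutions from 3 μM.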

Chain of truncated PI3Kα (p110α/iSH2 p85α) (P42336 whole entry, the tested form may be a part): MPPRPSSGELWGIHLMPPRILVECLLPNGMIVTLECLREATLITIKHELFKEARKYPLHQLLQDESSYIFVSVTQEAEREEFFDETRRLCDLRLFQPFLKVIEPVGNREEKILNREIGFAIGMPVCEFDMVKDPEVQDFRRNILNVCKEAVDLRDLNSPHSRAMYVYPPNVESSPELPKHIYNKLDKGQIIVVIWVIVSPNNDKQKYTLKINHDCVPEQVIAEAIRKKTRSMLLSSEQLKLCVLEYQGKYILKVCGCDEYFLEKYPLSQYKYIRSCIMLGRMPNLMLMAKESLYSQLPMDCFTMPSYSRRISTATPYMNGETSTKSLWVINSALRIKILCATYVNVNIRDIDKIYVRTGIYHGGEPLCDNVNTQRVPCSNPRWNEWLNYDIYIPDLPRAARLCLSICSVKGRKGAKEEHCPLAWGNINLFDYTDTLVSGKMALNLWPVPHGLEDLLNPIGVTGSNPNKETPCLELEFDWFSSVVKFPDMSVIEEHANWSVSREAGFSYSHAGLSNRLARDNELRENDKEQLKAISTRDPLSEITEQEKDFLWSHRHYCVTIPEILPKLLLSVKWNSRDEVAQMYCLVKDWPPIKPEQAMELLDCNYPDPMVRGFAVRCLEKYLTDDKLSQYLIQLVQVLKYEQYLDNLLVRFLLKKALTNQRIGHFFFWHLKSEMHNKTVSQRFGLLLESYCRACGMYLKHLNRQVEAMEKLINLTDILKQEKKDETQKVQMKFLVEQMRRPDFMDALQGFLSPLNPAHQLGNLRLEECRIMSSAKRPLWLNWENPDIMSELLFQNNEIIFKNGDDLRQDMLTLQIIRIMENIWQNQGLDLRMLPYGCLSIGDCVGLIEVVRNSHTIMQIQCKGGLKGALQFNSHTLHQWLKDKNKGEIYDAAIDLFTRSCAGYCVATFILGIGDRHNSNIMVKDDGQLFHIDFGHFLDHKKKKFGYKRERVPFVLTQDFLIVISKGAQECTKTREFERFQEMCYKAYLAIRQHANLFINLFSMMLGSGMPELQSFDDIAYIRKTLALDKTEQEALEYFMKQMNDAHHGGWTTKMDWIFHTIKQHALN

| Compound | PI3KA_Act Ki [nM] | Ki [nM] |
| --- | --- | --- |
| CC1(N2CCc3c(-c4cnc(N)nc4)nc(N4CCOCC4)nc32)CN(S(C)(=O)=O)C1 [Example 209] | 0.045 |  |
| CC(=O)NCC(=O)N1CC(N2CCc3c(-c4cnc(N)nc4)nc(N4CCOCC4)nc32)C1 [Example 210] | 0.898 |  |
| CC(=O)N1CC[C@@](C)(N2CCc3c(-c4cnc(N)nc4)nc(N4CCOCC4)nc32)C1 [Example 211] | 0.078 |  |
| CC(C)C(=O)NCC(=O)N1CC(N2CCc3c(-c4cnc(N)nc4)nc(N4CCOC[C@@H]4C)nc32)C1 [Example 212] | 0.534 |  |
| COC(=O)N1CC[C@](C)(N2CCc3c(-c4cnc(N)nc4)nc(N4CCOCC4)nc32)C1 [Example 213] | 0.030 |  |
| COC(=O)N1CC[C@@](C)(N2CCc3c(-c4cnc(N)nc4)nc(N4CCOCC4)nc32)C1 [Example 214] | 0.128 |  |
| C[C@@]1(N2CCc3c(-c4cnc(N)nc4)nc(N4CCOCC4)nc32)CCNC1 [Example 215] | 0.476 |  |
| CNC(=O)N1CC[C@](C)(N2CCc3c(-c4cnc(N)nc4)nc(N4CCOCC4)nc32)C1 [Example 216] | 0.124 |  |
| CN(CC(C)(C)N1CCc2c(-c3cnc(N)nc3)nc(N3CCOCC3)nc21)S(C)(=O)=O [Example 217] | 0.191 |  |
| CC(C)C(=O)NCC(=O)N1CC(N2CCc3c(-c4cnc(N)nc4)nc(N4CCOCC4)nc32)C1 [Example 218] | 0.751 |  |
| C[C@H]1COCCN1c1nc(-c2cnc(N)nc2)c2c(n1)N(C1(C)CN(S(N)(=O)=O)C1)CC2 [Example 219] | 0.037 |  |
| CNS(=O)(=O)N1CC(C)(N2CCc3c(-c4cnc(N)nc4)nc(N4CCOC[C@@H]4C)nc32)C1 [Example 220] | 0.053 |  |
| COCCC(=O)N1CC(N2CCc3c(-c4cnc(N)nc4)nc(N4CCOCC4)nc32)C1 [Example 221] | 1.291 |  |
| C[C@H]1COCCN1c1nc(-c2cnc(N)nc2)c2c(n1)N(C1CN(S(=O)(=O)C3CNC3)C1)CC2 [Example 222] | 0.101 |  |
| CC(=O)N1CC(S(=O)(=O)N2CC(N3CCc4c(-c5cnc(N)nc5)nc(N5CCOC[C@@H]5C)nc43)C2)C1 [Example 223] | 0.393 |  |
| CC(C)S(=O)(=O)N1CC(N2CCc3c(-c4cnc(N)nc4)nc(N4CCOC[C@H]4C)nc32)C1 [Example 224] | 2.296 |  |
| C[C@@H]1COCCN1c1nc(-c2cnc(N)nc2)c2c(n1)N([C@@]1(C)CCNC1)CC2 [Example 225] | 4.151 |  |
| C[C@@H]1COCCN1c1nc(-c2cnc(N)nc2)c2c(n1)N([C@]1(C)CCNC1)CC2 [Example 226] | 7.437 |  |
| C[C@@H]1COCCN1c1nc(-c2cnc(N)nc2)c2c(n1)N(C1(C)CCN(C(=O)OC(C)(C)C)C1)CC2 (stereo partly shown) [Example 228] | 0.164 |  |

| Compound | PI3KA_Act Ki [nM] | Ki [nM] |
| --- | --- | --- |
| C[C@@H]1COCCN1c1nc(-c2cnc(N)nc2)c2c(n1)N([C@@]1(C)CCN(C(=O)OC(C)(C)C)C1)CC2 [Example 229] | 0.055 |  |
| C[C@@H]1COCCN1c1nc(-c2cnc(N)nc2)c2c(n1)N([C@]1(C)CCN(C(=O)OC(C)(C)C)C1)CC2 [Example 230] | 6.996 |  |
| C[C@@H]1COCCN1c1nc(-c2cnc(N)nc2)c2c(n1)N([C@@]1(C)CCN(S(C)(=O)=O)C1)CC2 [Example 231] | 1.493 |  |
| C[C@@H]1COCCN1c1nc(-c2cnc(N)nc2)c2c(n1)N([C@]1(C)CCN(S(C)(=O)=O)C1)CC2 [Example 232] | 4.263 |  |
| [2H]C1([2H])CN(c2nc(-c3cnc(N)nc3)c3c(n2)N([C@@]2(C)CCN(C(=O)C(C)(C)N)C2)CC3)CC([2H])([2H])O1 [Example 233] |  | < 0.018 |
| [2H]C1([2H])CN(c2nc(-c3cnc(N)nc3)c3c(n2)N([C@@]2(C)CCN(C(=O)C(C)(C)NC(=O)OC(C)(C)C)C2)CC3)CC([2H])([2H])O1 [Example 234] |  | 0.509 |
| [2H]C1([2H])OC([2H])([2H])C([2H])([2H])N(c2nc(-c3cnc(N)nc3)c3c(n2)N([C@@]2(C)CCN(C(=O)C(C)(C)NC(=O)OC(C)(C)C)C2)CC3)C1([2H])[2H] [Example 235] |  | 0.693 |
| [2H]C1([2H])OC([2H])([2H])C([2H])([2H])N(c2nc(-c3cnc(N)nc3)c3c(n2)N([C@@]2(C)CCN(C(=O)C4(C)CC4)C2)CC3)C1([2H])[2H] [Example 236] |  | < 0.018 |
| [2H]C1([2H])CN(c2nc(-c3cnc(N)nc3)c3c(n2)N([C@@]2(C)CCN(C(=O)C4(C)CC4)C2)CC3)CC([2H])([2H])O1 [Example 237] |  | 0.025 |
| [2H]C1([2H])OC([2H])([2H])C([2H])([2H])N(c2nc(-c3cnc(N)nc3)c3c(n2)N([C@@]2(C)CCN(C(=O)OC(C)(C)C)C2)CC3)C1([2H])[2H] [Example 238] |  | < 0.018 |
| [2H]C1([2H])CN(c2nc(-c3cnc(N)nc3)c3c(n2)N([C@@]2(C)CCN(C(=O)OC(C)(C)C)C2)CC3)CC([2H])([2H])O1 [Example 239] |  | < 0.018 |
| CC(=O)N1CC(C)(N2CCc3c(-c4cnc(N)nc4)nc(N4CCOCC4)nc32)C1 [Example 240, 1-{3-[4-(2-aminopyrimidin-5-yl)-2-(morpholin-4-yl)-5,6-dihydro-7H-pyrrolo[2,3-d]pyrimidin-7-yl]-3-methylazetidin-1-yl}ethanone] | 0.093 |  |
| CC(C)(O)C(=O)N1CC(N2CCc3c(-c4cnc(N)nc4)nc(N4CCOCC4)nc32)C1 [Example 241, 1-{3-[4-(2-aminopyrimidin-5-yl)-2-(morpholin-4-yl)-5,6-dihydro-7H-pyrrolo[2,3-d]pyrimidin-7-yl]azetidin-1-yl}-2-hydroxy-2-methylpropan-1-one] | 1.174 |  |
| CC(C)(O)C(=O)N1CC(C)(N2CCc3c(-c4cnc(N)nc4)nc(N4CCOCC4)nc32)C1 [Example 242, 1-{3-[4-(2-aminopyrimidin-5-yl)-2-(morpholin-4-yl)-5,6-dihydro-7H-pyrrolo[2,3-d]pyrimidin-7-yl]-3-methylazetidin-1-yl}-2-hydroxy-2-methylpropan-1-one] | 0.158 |  |
| CC(C)(N)C(=O)N1CC(C)(N2CCc3c(-c4cnc(N)nc4)nc(N4CCOCC4)nc32)C1 [Example 243, 2-amino-1-{3-[4-(2-aminopyrimidin-5-yl)-2-(morpholin-4-yl)-5,6-dihydro-7H-pyrrolo[2,3-d]pyrimidin-7-yl]-3-methylazetidin-1-yl}-2-methylpropan-1-one] | 0.165 |  |
| CCC(=O)NCC(=O)N1CC(N2CCc3c(-c4cnc(N)nc4)nc(N4CCOCC4)nc32)C1 [Example 244, N-(2-{3-[4-(2-aminopyrimidin-5-yl)-2-(morpholin-4-yl)-5,6-dihydro-7H-pyrrolo[2,3-d]pyrimidin-7-yl]azetidin-1-yl}-2-oxoethyl)propanamide] | 0.598 |  |
| CC1(C(=O)N2CC(N3CCc4c(-c5cnc(N)nc5)nc(N5CCOCC5)nc43)C2)CC1 [Example 245, {3-[4-(2-aminopyrimidin-5-yl)-2-(morpholin-4-yl)-5,6-dihydro-7H-pyrrolo[2,3-d]pyrimidin-7-yl]azetidin-1-yl}(1-methylcyclopropyl) methanone] | 4.212 |  |
| CC1(C(=O)N2CC(C)(N3CCc4c(-c5cnc(N)nc5)nc(N5CCOCC5)nc43)C2)CC1 [Example 246, {3-[4-(2-aminopyrimidin-5-yl)-2-(morpholin-4-yl)-5,6-dihydro-7H-pyrrolo[2,3-d]pyrimidin-7-yl]-3-methylazetidin-1-yl}(1-methylcyclopropyl) methanone] | 0.060 |  |

Reference: US9260439B2, “Dihydropyrrolopyrimidine derivatives” (PFIZER INC., priority 2014, dated 2016)
